For assay [1], the system named is spontaneously hypertensive rats. Put plainly: Spontaneously Hypertensive Rat Test (Test 3). The format is in vivo. Particulars: 100 mg/kg body weight, four male spontaneously hypertensive rats, indirect tail-cuff method. On the procedure: Alternatively, one may evaluate the calcium antagonist activity of a test compound by measuring the displacement of nitrendipine to calcium channel antagonist receptors by the test compound according to the methods of Bolger, et al., Biochem. Biophys. Res. Comm., 104(4), 1604-1609 (1982) and Ehlert, et al., Life Sciences, 30, 2191-2202 (1982). In such a test, the amount of specifically-bound nitrendipine to rabbit heart is determined in the presence and absence of test compound. The percent nitrendipine displacement is directly related to the efficacy of the test compound as a calcium antagonist. This assay is described below as the "Nitrendipine Binding Assay". […] Circ. J., 270, 282 (1963). The general techniques for conducting such tests are disclosed in B. Vagnovsky "Automatic Blood-Pressure Measurements in Small Animals", American Laboratory, April, 1973, and "Techniques for the Measurement of Blood Pressure", Institute of Laboratory Animal Resouces NEWS, Vol. XIX (3), G 11-12, Spring, 1976. In this test a group of four male spontaneously hypertensive rats having systolic blood pressures greater than 150 mm Hg are used for each test compound. Systolic blood pressure is measured by the indirect method using a tail-cuff. The compounds are administered at a dose of 100 mg/kg body weight, and the average of the peak decrease in blood pressure is calculated for the four rats. Test results for exemplary compounds of Formula I are provided in Table I below, in which the Rabbit Potassium Depolarized Blood Vessel Test is called "Test 2", the Nitrendipine Binding Assay is called "Test 1" and the Spontaneously Hypertensive Rat test is called "Test 3".

Assay [2] has as its target calcium channel antagonist receptors (rabbit heart) (Oryctolagus cuniculus, UniProt P15381). Put plainly: Nitrendipine Binding Assay (Test 1). Set-up: species or system rabbit (female New Zealand white). The following applies: 3H-nitrendipine (0.05-0.50 nM), rabbit heart membrane, 90 min at 4° C., pH 7.4; read-out: Test 1 (IC50): concentration required to achieve 50% displacement of specifically-bound nitrendipine.

For assay [3], the system named is vascular smooth muscle tissue from the rabbit aorta. Put plainly: Rabbit Potassium Depolarized Blood Vessel Test (Test 2). The class given is cell-based. Particulars: Oryctolagus cuniculus, 10 min; test compound 10^-6 M, 10 minute exposure, 30 mM potassium chloride, rabbit aorta strips, 37° C.; read-out: Test 2 (% Inhibition) of potassium-induced contraction. The source says: This tissue can be made to contract when exposed to a depolarizing solution containing an elevated potassium ion concentration and normal amounts of calcium ions. A test compound added to the solution produces a dose-dependent relaxation of the contracted rabbit aortic tissue which gives an indication of calcium antagonist activity of the test compound. This test is described below as the "Rabbit Potassium Depolarized Blood Vessel Test".
In the Rabbit Potassium Depolarized Blood Vessel Test, rabbits are killed by cervical dislocation, and the thoracic aorta is removed. Helical strips, approximately 30-40 mm in length, are cut from the aorta and are suspended in tissue baths of oxygenated Krebs bicarbonate buffer at 37° C. under a resting tension of 4 g. After an equilibration period of approximately 1-2 hours, the strips are challenged with a 30 mM potassium chloride solution and the peak contraction is measured. Following measurement of the peak contraction, the strips are washed and re-equilibrated for an hour in oxygenated Krebs bicarbonate buffer. After the re-equilibration of the aorta strips, the test compound was added to the bath at a concentration of 10-^6 M and the strips were allowed to stand for 10 minutes. After the 10 minute exposure to the test compound, the tissue strips were rechallenged with 30 mM potassium chloride solution and the maximum contraction was measured. The specificity of any inhibition of contraction is determined by addition of 10 mM phenylephrine.
The percent inhibition of contraction is calculated from the formula: […]
where CT is the peak contraction in the presence of the test compound and Cc is the peak contraction without test compound.
Test results for exemplary compounds of Formula I are provided in Table I below, in which the Rabbit Potassium Depolarized Blood Vessel Test is called "Test 2", the Nitrendipine Binding Assay is called "Test 1" and the Spontaneously Hypertensive Rat test is called "Test 3".

calcium channel antagonist receptors (rabbit heart), sequence (P15381 whole entry, other chains not shown): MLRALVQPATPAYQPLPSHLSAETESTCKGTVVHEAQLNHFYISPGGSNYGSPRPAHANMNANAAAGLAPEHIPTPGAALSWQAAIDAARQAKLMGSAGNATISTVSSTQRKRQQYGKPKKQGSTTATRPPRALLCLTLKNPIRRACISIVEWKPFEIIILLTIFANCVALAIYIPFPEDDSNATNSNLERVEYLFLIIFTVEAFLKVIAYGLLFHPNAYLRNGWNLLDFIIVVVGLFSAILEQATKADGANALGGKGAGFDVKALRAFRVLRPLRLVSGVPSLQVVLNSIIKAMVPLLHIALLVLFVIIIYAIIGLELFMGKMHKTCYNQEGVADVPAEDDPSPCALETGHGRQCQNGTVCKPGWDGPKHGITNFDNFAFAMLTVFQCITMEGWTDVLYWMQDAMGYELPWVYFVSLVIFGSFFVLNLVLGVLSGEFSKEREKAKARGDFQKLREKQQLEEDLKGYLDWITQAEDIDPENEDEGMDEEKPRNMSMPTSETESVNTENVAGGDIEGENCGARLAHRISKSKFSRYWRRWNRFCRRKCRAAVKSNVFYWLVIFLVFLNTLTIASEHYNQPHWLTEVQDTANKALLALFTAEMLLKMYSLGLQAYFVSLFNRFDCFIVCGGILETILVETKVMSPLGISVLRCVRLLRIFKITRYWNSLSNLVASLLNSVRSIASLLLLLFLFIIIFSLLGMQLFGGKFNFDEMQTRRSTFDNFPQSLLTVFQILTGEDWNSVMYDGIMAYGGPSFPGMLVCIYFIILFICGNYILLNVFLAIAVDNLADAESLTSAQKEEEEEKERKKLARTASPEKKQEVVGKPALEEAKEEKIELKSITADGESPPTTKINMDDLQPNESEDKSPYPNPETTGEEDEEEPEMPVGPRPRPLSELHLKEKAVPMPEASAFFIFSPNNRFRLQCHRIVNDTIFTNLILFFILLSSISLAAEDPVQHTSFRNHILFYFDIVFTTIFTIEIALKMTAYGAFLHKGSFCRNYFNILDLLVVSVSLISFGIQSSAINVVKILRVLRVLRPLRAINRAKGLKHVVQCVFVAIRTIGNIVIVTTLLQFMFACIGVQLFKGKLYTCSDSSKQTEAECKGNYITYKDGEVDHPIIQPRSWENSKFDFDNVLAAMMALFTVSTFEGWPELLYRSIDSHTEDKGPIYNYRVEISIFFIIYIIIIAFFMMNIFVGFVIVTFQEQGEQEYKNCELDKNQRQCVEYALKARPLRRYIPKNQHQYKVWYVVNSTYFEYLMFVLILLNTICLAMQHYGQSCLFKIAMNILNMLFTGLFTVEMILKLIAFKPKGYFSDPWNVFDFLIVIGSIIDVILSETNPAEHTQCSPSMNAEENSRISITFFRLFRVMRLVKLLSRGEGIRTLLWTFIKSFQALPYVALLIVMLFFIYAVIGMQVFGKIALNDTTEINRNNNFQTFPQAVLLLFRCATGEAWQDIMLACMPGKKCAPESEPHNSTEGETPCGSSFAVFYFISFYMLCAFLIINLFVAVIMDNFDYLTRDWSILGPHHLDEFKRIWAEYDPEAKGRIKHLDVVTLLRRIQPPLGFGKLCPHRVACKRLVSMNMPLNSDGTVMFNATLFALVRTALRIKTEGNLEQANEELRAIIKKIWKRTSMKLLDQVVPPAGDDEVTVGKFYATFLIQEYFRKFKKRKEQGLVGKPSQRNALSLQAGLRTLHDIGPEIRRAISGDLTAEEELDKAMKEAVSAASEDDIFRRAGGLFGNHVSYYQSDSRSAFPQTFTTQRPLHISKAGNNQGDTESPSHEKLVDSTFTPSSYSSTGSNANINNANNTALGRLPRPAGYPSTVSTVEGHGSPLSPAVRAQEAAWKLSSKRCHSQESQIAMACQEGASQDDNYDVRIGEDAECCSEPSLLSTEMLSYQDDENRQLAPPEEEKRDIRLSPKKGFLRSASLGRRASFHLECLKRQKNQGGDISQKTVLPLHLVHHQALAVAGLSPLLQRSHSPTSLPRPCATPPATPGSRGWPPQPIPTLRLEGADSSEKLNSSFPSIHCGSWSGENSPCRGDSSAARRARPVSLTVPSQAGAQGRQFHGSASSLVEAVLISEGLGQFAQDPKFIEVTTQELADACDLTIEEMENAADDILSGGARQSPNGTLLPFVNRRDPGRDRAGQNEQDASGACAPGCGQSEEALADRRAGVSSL
calcium channel antagonist receptors (rabbit heart), sequence (P13806 27-960 partner limits assumed, other chains not shown): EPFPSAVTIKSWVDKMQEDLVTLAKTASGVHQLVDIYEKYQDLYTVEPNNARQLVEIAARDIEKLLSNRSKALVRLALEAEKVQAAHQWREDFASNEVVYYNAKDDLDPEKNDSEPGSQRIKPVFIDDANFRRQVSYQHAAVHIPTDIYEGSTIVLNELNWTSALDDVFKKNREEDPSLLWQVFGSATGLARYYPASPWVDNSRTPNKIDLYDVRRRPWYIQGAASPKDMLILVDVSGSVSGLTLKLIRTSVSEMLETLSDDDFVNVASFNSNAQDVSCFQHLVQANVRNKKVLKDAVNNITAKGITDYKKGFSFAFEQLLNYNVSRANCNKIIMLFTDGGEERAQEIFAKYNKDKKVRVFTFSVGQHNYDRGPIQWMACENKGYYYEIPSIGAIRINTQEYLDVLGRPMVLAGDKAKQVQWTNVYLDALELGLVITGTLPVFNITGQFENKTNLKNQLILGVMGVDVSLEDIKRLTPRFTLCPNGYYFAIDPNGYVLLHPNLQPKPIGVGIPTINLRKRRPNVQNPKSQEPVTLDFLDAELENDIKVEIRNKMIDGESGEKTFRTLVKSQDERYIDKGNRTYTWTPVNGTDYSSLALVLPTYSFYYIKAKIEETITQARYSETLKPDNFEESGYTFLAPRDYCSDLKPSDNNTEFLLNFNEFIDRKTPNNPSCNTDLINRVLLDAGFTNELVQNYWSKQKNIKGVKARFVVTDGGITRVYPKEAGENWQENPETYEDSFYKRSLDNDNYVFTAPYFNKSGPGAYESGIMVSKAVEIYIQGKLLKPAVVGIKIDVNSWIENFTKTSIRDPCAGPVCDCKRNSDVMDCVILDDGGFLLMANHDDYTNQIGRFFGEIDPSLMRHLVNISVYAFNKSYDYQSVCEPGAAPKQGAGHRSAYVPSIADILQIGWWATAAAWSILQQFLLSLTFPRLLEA
calcium channel antagonist receptors (rabbit heart), sequence (P13806 961-1106 partner limits assumed, other chains not shown): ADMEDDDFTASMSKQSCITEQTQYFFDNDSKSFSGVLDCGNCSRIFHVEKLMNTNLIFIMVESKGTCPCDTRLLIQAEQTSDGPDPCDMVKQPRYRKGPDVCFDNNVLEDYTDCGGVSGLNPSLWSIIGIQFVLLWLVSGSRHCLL

Turning to `CC1=C(C(=O)OCCN(C)Cc2ccccc2)C(c2ccccc2[N+](=O)[O-])c2c(n(C)c(=O)n(C)c2=O)N1` (stereo not shown) [XIII], in assay [1], the “Test 3 (mmHg, 100 mpk): average of the peak decrease in systolic blood pressure” value is reported as -35 mmHg.
Take `CC1=C(C(=O)OCCN(C)Cc2ccccc2)C(c2cccc([N+](=O)[O-])c2)c2c([nH]c(=O)[nH]c2=O)N1` (stereo not shown) [XXII]: in assay [1], the “Test 3 (mmHg, 100 mpk): average of the peak decrease in systolic blood pressure” value was -11 mmHg. Moreover, the IC50 in assay [2] came to 7700 nM.
As for `COC(=O)C1=C(C)Nc2c(c(=O)n(C)c(=O)n2C)C1c1cccc([N+](=O)[O-])c1` (stereo not shown) [Example I, Methyl 5,8-Dihydro-1,3,7-trimethyl-5-(3-nitrophenyl)-2,4-dioxopyrido[2,3-d]pyrimidine-6-carboxylate], the inhibition (in general, the share of the control response that was lost under treatment) at 1 µM in assay [3] was determined as 54%. For the same molecule, the “Test 3 (mmHg, 100 mpk): average of the peak decrease in systolic blood pressure” value in assay [1] was -11 mmHg. In addition, the IC50 in assay [2] was 300 nM.
With `CC1=C(C(=O)OCCCBr)C(c2cccc(Cl)c2)c2c(n(C)c(=O)n(C)c2=O)N1` (stereo not shown) [XXIX], in assay [3], the inhibition at 1 µM turned out to be 44%. The IC50 in assay [2] stood at 385 nM.
As to `CC1=C(C(=O)OCCN(C)Cc2ccccc2)C(c2ccccc2Cl)c2c(n(C)c(=O)n(C)c2=O)N1` (stereo not shown) [XIV], in assay [3], the inhibition at 1 µM was determined as 50%. Besides, the “Test 3 (mmHg, 100 mpk): average of the peak decrease in systolic blood pressure” value in assay [1] is on record as -40 mmHg. Moreover, the IC50 in assay [2] came to 1000 nM.
Take `CC1=C(C(=O)OCCBr)C(c2cccc([N+](=O)[O-])c2)c2c(n(C)c(=O)n(C)c2=O)N1` (stereo not shown) [XXIV]: the inhibition at 1 µM in assay [3] was determined as 26%. Further, the “Test 3 (mmHg, 100 mpk): average of the peak decrease in systolic blood pressure” value in assay [1] is -10 mmHg. In addition, in assay [2], the IC50 worked out at 109 nM.
On to `CC1=C(C(=O)OCCN(C)Cc2ccccc2)C(c2cc(Cl)cc(Cl)c2)c2c(n(C)c(=O)n(C)c2=O)N1` (stereo not shown) [XIX], for which the inhibition at 1 µM in assay [3] came out at 28%. Further, the “Test 3 (mmHg, 100 mpk): average of the peak decrease in systolic blood pressure” value in assay [1] is listed as -37 mmHg. Moreover, the IC50 in assay [2] stood at 2300 nM.
Consider `CC1=C(C(=O)OCC(F)(F)F)C(c2cccc(Cl)c2)c2c(n(C)c(=O)n(C)c2=O)N1` (stereo not shown) [XXVII], for which the IC50 in assay [2] came to 860 nM.
Consider `CC1=C(C(=O)OCCN(C)Cc2ccccc2)C(c2cccc([N+](=O)[O-])c2)c2c(n(C)c(=O)n(C)c2=O)N1` (stereo not shown) [IV], for which the inhibition at 1 µM in assay [3] amounted to 44%. The “Test 3 (mmHg, 100 mpk): average of the peak decrease in systolic blood pressure” value in assay [1] is -28 mmHg. In addition, the IC50 in assay [2] was 230 nM.
Consider `COC(=O)C1=C(C)Nc2c(c(=O)n(C)c(=O)n2C)C1c1cccc(Cl)c1` (stereo not shown) [Example II, Methyl 5-(3-Chlorophenyl)-5,8-dihydro-1,3,7-trimethyl-2,4-dioxopyrido[2,3-d]pyrimidine-6-carboxylate], for which, in assay [3], the inhibition at 1 µM amounted to 3%. For the same molecule, the “Test 3 (mmHg, 100 mpk): average of the peak decrease in systolic blood pressure” value in assay [1] is -31 mmHg. Moreover, in assay [2], the IC50 stood at 1000 nM.
Regarding `CC1=C(C(=O)OCCN(C)Cc2ccccc2)C(c2cccc(Cl)c2)c2c(n(C)c(=O)n(C)c2=O)N1` (stereo not shown) [VI, 2-(N-benzyl-N-methylaminoethyl) 5-(3-chlorophenyl)-5,8-dihydro-1,3,7-trimethyl-2,4-dioxopyrido[2,3-d]pyrimidine-6-carboxylate], the inhibition at 1 µM in assay [3] is 52%. Also, the “Test 3 (mmHg, 100 mpk): average of the peak decrease in systolic blood pressure” value in assay [1] is -50 mmHg. Moreover, the IC50 in assay [2] was 100 nM.
Take `CC1=C(C(=O)OCCN(C)Cc2ccccc2)C(c2cccc(F)c2)c2c(n(C)c(=O)n(C)c2=O)N1` (stereo not shown) [VIII]: the inhibition at 1 µM in assay [3] stood at 48%. In addition, the “Test 3 (mmHg, 100 mpk): average of the peak decrease in systolic blood pressure” value in assay [1] is -47 mmHg. Besides, in assay [2], the IC50 worked out at 500 nM.
On to `CC1=C(C(=O)OCCN(C)Cc2ccccc2)C(c2cccc(C(F)(F)F)c2)c2c(n(C)c(=O)n(C)c2=O)N1` (stereo not shown) [XVIII], for which, in assay [3], the inhibition at 1 µM is 33%. Also, in assay [1], the “Test 3 (mmHg, 100 mpk): average of the peak decrease in systolic blood pressure” value is -37 mmHg. Also, the IC50 in assay [2] amounted to 3400 nM.
On to `CC1=C(C(=O)OCCN(C)Cc2ccccc2)C(c2ccco2)c2c(n(C)c(=O)n(C)c2=O)N1.Cl.O` (single isomer, unassigned) [Example III, 2-(N-Benzyl-N-methylamino)ethyl 5-(Furan-2-yl)-5,8-dihydro-1,3,7-trimethyl-2,4-dioxopyrido[2,3-d]pyrimidine-6-carboxylate Monohydrochloride Monohydrate], for which, in assay [1], the “Test 3 (mmHg, 100 mpk): average of the peak decrease in systolic blood pressure” value is reported as -22 mmHg. The IC50 in assay [2] was 6000 nM.
With `CC1=C(C(=O)OCCBr)C(c2ccccc2Cl)c2c(n(C)c(=O)n(C)c2=O)N1` (stereo not shown) [XXVIII], in assay [3], the inhibition at 1 µM came to 23%. The IC50 in assay [2] is 175 nM.
`CC1=C(C(=O)OCCN(C)Cc2ccccc2)C(c2cccc(C#N)c2)c2c(n(C)c(=O)n(C)c2=O)N1` (stereo not shown) [V]: the inhibition at 1 µM in assay [3] is 26%. The “Test 3 (mmHg, 100 mpk): average of the peak decrease in systolic blood pressure” value in assay [1] was -31 mmHg. Also, in assay [2], the IC50 amounted to 650 nM.
With `CC1=C(C(=O)OCCBr)C(c2cccc(C(F)(F)F)c2)c2c(n(C)c(=O)n(C)c2=O)N1` (stereo not shown) [XXV], in assay [3], the inhibition at 1 µM was determined as 41%. Further, in assay [2], the IC50 is 1100 nM.
Consider `CC1=C(C(=O)OCCN(C)Cc2ccccc2)C(c2ccc(C(F)(F)F)cc2)c2c(n(C)c(=O)n(C)c2=O)N1` (stereo not shown) [XXI], for which the inhibition at 1 µM in assay [3] came to 6%. In addition, in assay [1], the “Test 3 (mmHg, 100 mpk): average of the peak decrease in systolic blood pressure” value is on record as -16 mmHg. Moreover, in assay [2], the IC50 was 2300 nM.
As to `CC1=C(C(=O)OCCN(C)Cc2ccccc2)C(c2cccc(C)c2)c2c(n(C)c(=O)n(C)c2=O)N1` (stereo not shown) [Example X], the inhibition at 1 µM in assay [3] turned out to be 16%. For the same molecule, the “Test 3 (mmHg, 100 mpk): average of the peak decrease in systolic blood pressure” value in assay [1] is on record as -12 mmHg. For the same molecule, in assay [2], the IC50 was determined as 3200 nM.
In the case of `CC1=C(C(=O)OCCBr)C(c2cccc(Cl)c2)c2c(n(C)c(=O)n(C)c2=O)N1` (stereo not shown) [XXIII], the inhibition at 1 µM in assay [3] is 54%. In assay [1], the “Test 3 (mmHg, 100 mpk): average of the peak decrease in systolic blood pressure” value is -16 mmHg. The IC50 in assay [2] was found to be 78 nM.
`CC1=C(C(=O)OCCN(C)Cc2ccccc2)C(c2cccc(Cl)c2)c2c([nH]c(=O)[nH]c2=O)N1` (stereo not shown) [VII]: in assay [2], the IC50 stood at 8000 nM.
In the case of `CC1=C(C(=O)OCCF)C(c2cccc(Cl)c2)c2c(n(C)c(=O)n(C)c2=O)N1` (stereo not shown) [XXVI], the IC50 in assay [2] is 890 nM.
For the molecule `COc1cccc(C2C(C(=O)OCCN(C)Cc3ccccc3)=C(C)Nc3c2c(=O)n(C)c(=O)n3C)c1` (stereo not shown) [IX], the inhibition at 1 µM in assay [3] amounted to 8%. In assay [1], the “Test 3 (mmHg, 100 mpk): average of the peak decrease in systolic blood pressure” value is listed as -57 mmHg. Further, the IC50 in assay [2] was found to be 2800 nM.
For the molecule `CC1=C(C(=O)OCCN(C)Cc2ccccc2)C(c2ccccc2[N+](=O)[O-])c2c(n(C)c(=O)n(C)c2=O)N1` (stereo not shown) [XII], the inhibition at 1 µM in assay [3] is 27%. Besides, the “Test 3 (mmHg, 100 mpk): average of the peak decrease in systolic blood pressure” value in assay [1] is reported as -16 mmHg. Further, in assay [2], the IC50 amounted to 2500 nM.
For the molecule `CC1=C(C(=O)OCCN(C)Cc2ccccc2)C(c2ccco2)c2c(n(C)c(=O)n(C)c2=O)N1` (single isomer, unassigned) [Example XVI, 2-(N-benzyl-N-methylamino)ethyl-5-(furan-2-yl)-5,8-dihydro-1,3,7-trimethyl-2,4-dioxopyrido [2,3-d]pyrimidine-6-carboxylate], in assay [2], the IC50 was determined as 2000 nM.
For the molecule `CC1=C(C(=O)OCCN(C)Cc2ccccc2)C(c2cccc(Cl)c2)c2c([nH]c(=S)[nH]c2=O)N1` (stereo not shown) [XX], the “Test 3 (mmHg, 100 mpk): average of the peak decrease in systolic blood pressure” value in assay [1] is reported as -16 mmHg. Moreover, in assay [2], the IC50 is more than 1000 nM.
For the molecule `COC(=O)C1=C(C)Nc2c(c(=O)n(C)c(=O)n2C)C1c1ccco1` (stereo not shown) [Example XV], in assay [1], the “Test 3 (mmHg, 100 mpk): average of the peak decrease in systolic blood pressure” value is on record as -22 mmHg. Further, the IC50 in assay [2] was determined as 100000 nM.

Source of the values: US4596805A, “Substituted dioxopyridopyrimidines” (Ortho Pharmaceutical Corporation, priority 1984, dated 1986).
